Holding throughout (test): single-molecule MspA-M2 nanopore kinetics
Assay [1] deals with Theophylline-binding aptamer (RNA, aptamer) AGUGAUACCAGCAUCGUCUUGAUGCCCUUGGCAGCACU
As to conditions: 1 M KCl; +180 mV, aptamer cis, 25 µM theophylline trans.

Assay [2] deals with Serotonin-binding aptamer (DNA, aptamer) CGACTGGTAGGCAGATAGGGGAAGCTGATTCGATGCGTGGGTCG
The following applies: 1 M KCl; +120 mV, aptamer cis, serotonin trans.

The test system of assay [3] is Dopamine-binding aptamer (DNA, aptamer) CGACGCCAGTTTGAAGGTTCGTTCGCAGGTGTGGAGTGACGTCG
As to conditions: 1 M KCl; 10 mM Tris pH 7.4, +180 mV, aptamer cis, 25 µM dopamine trans.

One may read the Kd as a measure of binding affinity in units of concentration. A low value points to a tighter complex.

`Cn1c(=O)c2[nH]cnc2n(C)c1=O`: the Kd in assay [1] is 72 ± 17 µM.

Regarding `NCCc1c[nH]c2ccc(O)cc12`, in assay [2], the Kd was determined as 9.0 ± 1.3 µM.

Take `NCCc1ccc(O)c(O)c1`: the equilibrium dissociation constant (Kd) in assay [3] is recorded as 27 ± 3 µM.

For the origin of these results see article PMC10268594 (2023).
